Measurements: US20200061007A1, “CANCER STEM CELL PROLIFERATION INHIBITOR” (NATIONAL INSTITUTE OF ADVANCED INDUSTRIAL SCIENCE AND …, priority 2014, published 2020)

Assays:
[1] = test system: human pancreatic cancer cell line Panc-1 cell clusters; experiment: Growth of human pancreatic cancer cell spheroids in suspension culture; assay type: cell-based
Experimental: Culturing of a human pancreatic cancer cell line in DMEM/F12 medium supplemented with B27, 20 ng/mL EGF, 20 ng/mL bFGF, and 4 μg/mL heparin using a low-adhesion dish allows formation of cell clusters, and the cells can be cultured in a suspended state. Under these conditions, the cells can be cultured such that they show increased levels of several cancer stem cell markers as well as markers reported for other cancers. First, the cell clusters containing the cells positive for the cancer stem cell markers were cultured in a medium supplemented with Am80 for 1 week, and the influences of Am80 on the growth of cell clusters and the expression levels of the cancer stem cell markers were analyzed.

[2] = test system: Human Pancreatic Cancer Cell Panc-1 Spheroids; experiment: CD24+/CD44+/ESA+ cells by flow cytometry in Panc-1 spheroids; assay type: cell-based
Source text: Pancreatic cancer cells prepared by performing suspension culture in the presence of Am80 for 1 week was subjected to analysis of expression of cancer stem cell surface markers at the protein level by flow cytometry using fluorescence-labeled primary antibodies.

[3] = test system: CD133-positive human pancreatic cancer stem cells; experiment: Cell migration in Boyden chambers; assay type: cell-based; settings: Am80 1 μM, CD133-positive fraction
Experimental: Pancreatic cancer cells containing pancreatic cancer stem cells were separated into CD133-positive cells and negative cells using magnetic antibody beads, and Am80 was added at 1 μM to the fractions, followed by culturing the cells in Boyden chambers and then observing the cells migrated into the back side of the membrane.

[4] = test system: human pancreatic cancer cells containing pancreatic cancer stem cells; experiment: Liver metastasis after transplantation to the pancreas of nude mice; assay type: in vivo; settings: Am80 3 mg/kg/day for 1 month
Experimental: Pancreatic cancer cells (1×10^6 cells) containing pancreatic cancer stem cells were transplanted to the pancreas of nude mice, and the size of a tumor formed by metastasis to the liver was measured 1 month later. Am80 was administered at 3 mg/kg/day for 1 month.

[5] = Body weight of tumor-bearing nude mice; assay type: in vivo; settings: Am80 3 mg/kg/day for 1 month
Experimental: (§1) Pancreatic cancer cells (1×10^6 cells) containing pancreatic cancer stem cells were subcutaneously transplanted to nude mice. Mice in which tumor formation was found 2 weeks later were subjected to administration of Am80 for 1 month at 3 mg/kg/day.

[6] = test system: human pancreatic cancer cells subcutaneously transplanted to nude mice; experiment: Pathologic samples of tumor, morphology of cellular tissue; assay type: in vivo; settings: Am80 3 mg/kg/day for 1 month, vs control
Experimental: as §1, with “mg/kg/day. Pathologic samples of each tumor were prepared to evaluate morphology of cellular tissue.” for “mg/kg/day.”

[7] = test system: Human pancreatic cancer cells; experiment: Sphere formation of gemcitabine-treated pancreatic cancer cells (colony count); assay type: cell-based; settings: cells cultured with gemcitabine (10 nM) 1 week, then Am80 1 week
Experimental: Human pancreatic cancer cells were cultured in the suspension-culture state in the presence of gemcitabine (10 nM) for 1 week. Thereafter, Am80 was added to the culture, and suspension culture was carried out for 1 week, followed by counting the number of colonies formed.

[8] = test system: Human Leukemia Cell Line Kasumi-1; experiment: Growth inhibition of Kasumi-1, isobologram; assay type: cell-based; settings: Homo sapiens; Kasumi-1, RPMI1640 with 20% FBS
Experimental: A human leukemia cell line Kasummi-1, containing cells positive for cancer stem cell markers, was cultured in RPMI1640 medium supplemented with 20% FBS, and the growth inhibitory action by the combination of Am80 and 5-AZ was studied using Isobologram. […] These concentrations were taken as 1.0, and the points corresponding to 1.0 in the two axes were connected to each other via a straight line. In cases where the ratio observed for the combination effect is on the line, the effect is additive, and, in cases where the ratio is below the line, the effect is synergistic.

[9] = test system: human breast cancer cell line MCF-7; experiment: Tumor volume, MCF-7/nude mice; assay type: in vivo
Experimental: (§2) A tumor piece of a human breast cancer cell line MCF-7 containing cells positive for cancer stem cell markers was subcutaneously transplanted to the dorsal part of each of 6-week-old female BALB/cAJc1-nu nude mice (5 mice/group) using a trocar needle. At the time when the tumor volume reached 100 to 200 mm^3, the administration was started. Am80 was orally administered once a day at a dose of 1 mg/kg for 21 continuous days, and DXL was intravenously administered at a dose of 3.5 mg/kg from Day 1, 3 times at intervals of 4 days. In the combination group, the agents were administered at the same doses as, and by the same administration methods as, those in the cases of administration of each single agent. Measurement of the tumor diameter was carried out until the next day of the completion of the administration (Day 22). The longitudinal diameter and the transverse diameter of the tumor were measured using a caliper, and the tumor volume (mm^3) was determined according to the following formula: longitudinal diameter×transverse diameter^2/2. In the control group, physiological saline was intraperitoneally administered from Day 1, 3 times at intervals of 4 days.

[10] = test system: human prostate cancer cell line LNCaP; experiment: Tumor volume, LNCaP/nude mice; assay type: in vivo
Experimental: as §2, with “prostate” for “breast”, “LNCaP” for “MCF-7”, “(4” for “(5”, “5” for “3.5”

[11] = suspension culture with Am80 for 1 week

Question: For `CC1(C)CCC(C)(C)c2cc(NC(=O)c3ccc(C(=O)O)cc3)ccc21` [Am80, tamibarotene], which “sizes of the cell clusters” value ([1]; cultured for a total of 2 weeks in Am80-containing medium) is on record?
Answer: Its value is “further decreased”.

Question: What about the “growth of the cell clusters” value [1, 11] of the same molecule?
Answer: The value was “suppressed dependently on the concentration”.

Question: And the number of cells [1, 11]?
Answer: The number of cells was “decreased dependently on the concentration”.

Question: And the “abundance of cells positive for CD24+/CD44+/ESA+” value ([2]; 10 μM Am80, suspension culture 1 week)?
Answer: The value was “reduced by half”.

Question: What about the “abundance of cells positive for CD24+/CD44+/ESA+” value ([2]; addition of Am80, suspension culture 1 week) of the same molecule?
Answer: The value was “significantly decreased”.

Question: And the cell migration ability [3]?
Answer: The cell migration ability was “remarkable suppression”.

Question: And the “metastasis of the pancreatic cancer (size of tumor formed by metastasis to the liver)” value [4]?
Answer: Its value is “could be suppressed compared to the control”.

Question: And the body weight [5]?
Answer: Its body weight is “not influenced”.

Question: What about the “morphology of pancreatic cancer tissue” value [6] of the same molecule?
Answer: The value was “differentiated morphology”.

Question: What about the “sphere formation (number of colonies formed)” value [7] of the same molecule?
Answer: Its value is “in vitro inhibitory effect on sphere formation”.

Question: What about the IC50 [8] of the same molecule?
Answer: Its IC50 is 1000 nM.

Question: And the “tumor volume Day 1” value ([9]; Am80 1 mg/kg oral daily 21 days, DXL 3.5 mg/kg i.v. 3 times at intervals of 4 days, Day 1)?
Answer: The value was 155.3 mm^3.

Question: And the “tumor volume Day 5” value ([9]; Am80 1 mg/kg oral daily, DXL 3.5 mg/kg i.v., Day 5)?
Answer: The value was 151.3 mm^3.

Question: What about the “tumor volume Day 9” value ([9]; Am80 1 mg/kg oral daily, DXL 3.5 mg/kg i.v., Day 9) of the same molecule?
Answer: The value was 155.5 mm^3.

Question: What about the “tumor volume Day 13” value ([9]; Am80 1 mg/kg oral daily, DXL 3.5 mg/kg i.v., Day 13) of the same molecule?
Answer: Its value is 208.9 mm^3.

Question: And the “tumor volume Day 17” value ([9]; Am80 1 mg/kg oral daily, DXL 3.5 mg/kg i.v., Day 17)?
Answer: Its value is 229.4 mm^3.

Question: What about the “tumor volume Day 22” value ([9]; Am80 1 mg/kg oral daily, DXL 3.5 mg/kg i.v., Day 22) of the same molecule?
Answer: The value was 261.4 mm^3.

Question: And the “tumor volume Day 1” value ([10]; Am80 1 mg/kg oral daily 21 days, DXL 5 mg/kg i.v. 3 times at intervals of 4 days, Day 1)?
Answer: Its value is 121.3 mm^3.

Question: And the “tumor volume Day 5” value ([10]; Am80 1 mg/kg oral daily, DXL 5 mg/kg i.v., Day 5)?
Answer: Its value is 162.1 mm^3.

Question: And the “tumor volume Day 9” value ([10]; Am80 1 mg/kg oral daily, DXL 5 mg/kg i.v., Day 9)?
Answer: The value was 205.8 mm^3.

Question: And the “tumor volume Day 13” value ([10]; Am80 1 mg/kg oral daily, DXL 5 mg/kg i.v., Day 13)?
Answer: The value was 282.8 mm^3.

Question: And the “tumor volume Day 17” value ([10]; Am80 1 mg/kg oral daily, DXL 5 mg/kg i.v., Day 17)?
Answer: The value was 409.9 mm^3.

Question: And the “tumor volume Day 22” value ([10]; Am80 1 mg/kg oral daily, DXL 5 mg/kg i.v., Day 22)?
Answer: Its value is 436.3 mm^3.
